Reference: ChEMBL document CHEMBL1212736, “Prevalence and clonal characterization of Streptococcus pyogenes clinical isolates with reduced fluoroquinolone susceptibility in Spain” (2010)
≈ marks a conversion by molar mass, not a printed value. Calls of active or inactive are those of the source. No cut-off for these calls is given here.

Experiments:
[1] = test system: Streptococcus pyogenes; experiment: Antimicrobial activity against ciprofloxacin-susceptible Streptococcus pyogenes harboring Asp91/Asn mutation in parC gene by agar dilution method; type: functional
[2] = test system: Streptococcus pyogenes; experiment: Antimicrobial activity against strong ciprofloxacin-resistant Streptococcus pyogenes by agar dilution method; type: functional
[3] = test system: Streptococcus pyogenes; experiment: Antimicrobial activity against strong ciprofloxacin-resistant Streptococcus pyogenes at 10 ug by disk diffusion assay; type: functional; settings: read-out: IZ
[4] = test system: Streptococcus pyogenes; experiment: Antimicrobial activity against mild ciprofloxacin-resistant Streptococcus pyogenes by agar dilution method; type: functional
[5] = test system: Streptococcus pyogenes; experiment: Antimicrobial activity against mild ciprofloxacin-resistant Streptococcus pyogenes assessed as 1 fold decrease in compound MIC by agar dilution method; type: functional, organism-based
[6] = test system: Streptococcus pyogenes; experiment: Antimicrobial activity against ciprofloxacin-susceptible Streptococcus pyogenes harboring Asp91/Asn mutation in parC gene assessed as 1 fold decrease in compound MIC by agar dilution method; type: functional, organism-based
[7] = test system: Streptococcus pyogenes; experiment: Antimicrobial activity against strong ciprofloxacin-resistant Streptococcus pyogenes assessed as 1 fold decrease in compound MIC by agar dilution method; type: functional, organism-based
[8] = test system: Streptococcus pyogenes; experiment: Antimicrobial activity against macrolide-resistant Streptococcus pyogenes emm77/ST399/T28 expressing tetM gene by agar dilution method; type: functional

| SMILES | MIC50 [1] [µg/mL] | MIC90 [1] [µg/mL] | MIC [2] [µg/mL] | zone of inhibition at 10 µg/disc [3] [mm] | MIC50 [4] [µg/mL] | MIC90 [4] [µg/mL] | Activity [5] | Activity [6] | Activity [7] | MIC [8] [µg/mL] |
| --- | --- | --- | --- | --- | --- | --- | --- | --- | --- | --- |
| C[C@H]1COc2c(N3CCN(C)CC3)c(F)cc3c(=O)c(C(=O)O)cn1c23.C[C@H]1COc2c(N3CCN(C)CC3)c(F)cc3c(=O)c(C(=O)O)cn1c23.O [LEVOFLOXACIN] | ≤ 0.5 | 1 | 32 | 0 | 2 | 2 |  |  |  |  |
| O=C(O)c1cn(C2CC2)c2cc(N3CCNCC3)c(F)cc2c1=O [CIPROFLOXACIN] | < 0.5 | 1 (≈ 3.02 µM) | 32 (≈ 96.6 µM) | 0 |  |  | Active | Active | Active |  |
| CO/N=C1\CN(c2nc3c(cc2F)c(=O)c(C(=O)O)cn3C2CC2)CC1CN (configuration not stated) [GEMIFLOXACIN] | ≤ 0.25 | ≤ 0.25 | 1 (≈ 2.57 µM) | 0 | ≤ 0.25 | ≤ 0.25 |  |  |  |  |
| COc1c(N2C[C@@H]3CCCN[C@@H]3C2)c(F)cc2c(=O)c(C(=O)O)cn(C3CC3)c12 [MOXIFLOXACIN] | ≤ 0.25 | ≤ 0.25 | 4 (≈ 9.96 µM) | 0 | 0.5 (≈ 1.25 µM) | 0.5 (≈ 1.25 µM) |  |  |  |  |
| CCn1cc(C(=O)O)c(=O)c2cc(F)c(N3CCNCC3)cc21 [NORFLOXACIN] | 4 (≈ 12.5 µM) | 8 (≈ 25.1 µM) | 64 (≈ 200 µM) | 0 | 32 (≈ 100 µM) | > 32 | Active | Active | Active |  |
| CN(C)[C@@H]1C(O)=C(C(N)=O)C(=O)[C@@]2(O)C(O)=C3C(=O)c4c(O)cccc4[C@@](C)(O)[C@H]3C[C@@H]12 [TETRACYCLINE] |  |  |  |  |  |  |  |  |  | 8 (≈ 18 µM) |
| Cc1c(F)c(N2CCNC(C)C2)cc2c1c(=O)c(C(=O)O)cn2C1CC1 (configuration not stated) [GREPAFLOXACIN] | ≤ 0.5 | 1 (≈ 2.78 µM) | 16 (≈ 44.5 µM) | 0 | 2 (≈ 5.56 µM) | 2 (≈ 5.56 µM) |  |  |  |  |
| CC1COc2c(N3CCN(C)CC3)c(F)cc3c(=O)c(C(=O)O)cn1c23 (configuration not stated) [OFLOXACIN] | 1 (≈ 2.77 µM) | 2 (≈ 5.53 µM) | 64 (≈ 177 µM) | 0 | 4 (≈ 11.1 µM) | 8 (≈ 22.1 µM) |  |  |  |  |
